Measurements as given in patent US9850203B2, “Autotaxin inhibitor compounds” (PharmAkea, Inc., priority 2013, dated 2017).
pIC50: −log10 of the molar value.

Target: human autotaxin (ATX) (Homo sapiens (Human), UniProt Q13822)
Assay: Human Autotaxin Assay
Assay type: biochemical
Details: concentrated conditioned media from Hep3B cells; LPC substrate, choline release
Procedure, shortened: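 Autotaxin source: Hep3B conditioned medium concentrated 20-fold, preincubated with compound 15 min at 37° C in lyso-PLD buffer (100 mM Tris pH 9, 500 mM NaCl, 5 mM MgCl2, 5 mM CaCl2, 0.05% Triton X-100, ±0.2% fatty-acid-free HSA). 100 uM LPC (14:0) then added, 1.5-3 hours at 37° C; choline release measured.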

| Compound | pIC50 |
| --- | --- |
| Cc1c(Sc2cccc(C(=O)O)c2)c2ccc(Cl)c(F)c2n1CC(=O)Nc1cnoc1 [Compound 1-11, 3-((6-Chloro-7-fluoro-1-(2-(isoxazol-4-ylamino)-2-oxoethyl)-2-methyl-1H-indol-3-yl)thio)benzoic acid] | 5.52 to 6.30 |
| Cc1c(Sc2cccc(C(=O)O)c2)c2ccc(Cl)c(F)c2n1CC(=O)N1CCc2c(F)cc(F)cc21 [Compound 1-70, 3-((6-Chloro-1-(2-(4,6-difluoroindolin-1-yl)-2-oxoethyl)-7-fluoro-2-methyl-1H-indol-3-yl)thio)benzoic acid] | ≥ 6.30 |
| COc1ccc2c(c1)CCN2C(=O)Cn1c(C)c(Sc2cccc(C(=O)O)c2)c2ccc(Cl)c(F)c21 [Compound 1-58, 3-((6-Chloro-1-(2-(5-methoxyindolin-1-yl)-2-oxoethyl)-7-fluoro-2-methyl-1H-indol-3-yl)thio)benzoic acid] | ≥ 6.30 |
| Cc1c(Sc2cccc(C(=O)O)c2)c2ccc(Cl)c(F)c2n1CC(=O)N1CC(C)(C)c2ccc(F)cc21 [Compound 1-34, 3-((6-Chloro-7-fluoro-1-(2-(6-fluoro-3,3-dimethylindolin-1-yl)-2-oxoethyl)-2-methyl-1H-indol-3-yl)thio)benzoic acid] | ≥ 6.30 |
